Read-outs that look alike come from different tables or passages of the source.
What was measured:
[1] = target: LMP7 (purified human immuno proteasome) (Homo sapiens, UniProt P28062); assay: Determination of LMP7 activity (fluorescence intensity assay, Suc-LLVY-AMC); type: biochemical; settings: for Selectivity LMP7 vs Beta5: LMP7 versus Beta5, incubation for 20 minutes
Description: Biological Activity Determination of LMP7 Activity:
Measurement of LMP7 inhibition is performed in 384 well format based on fluorescence intensity assay.
(§1) Purified human immuno proteasome (0.25 nM) and serial diluted compounds in DMSO (range of concentrations from 30 μM to 15 pM) or controls are incubated for 20 minutes or 120 minutes (long incubation) at 25° C. in assay buffer containing 50 mM Tris pH 7.4, 0.03% SDS, 1 mM EDTA and 1% DMSO. The reaction is initiated by the addition of the fluorogenic peptide substrate, Suc-LLVY-AMC (Bachem 1-1395), at a concentration of 40 μM. After 60 minutes of incubation at 37° C., fluorescence intensity is measured at λex=350 nm and λem=450 nm with a fluorescence reader (Perkin Elmer Envision reader or equivalent).
(§2) Unless indicated otherwise the results are obtained after incubation for 20 minutes.

[2] = target: Beta5 (purified human constitutive proteasome) (Homo sapiens, UniProt P28074); assay: Determination of Beta5 activity (fluorescence intensity assay, Suc-LLVY-AMC); type: biochemical
Description: Determination of Beta5 Activity:
Measurement of Beta5 inhibition is performed in 384 well format based on fluorescence intensity assay.
as §1, with “constitutive” for “immuno”, “(1.25” for “(0.25”
as §2

[3] = incubation for 20 minutes at 25° C., concentrations 30 μM to 15 pM, read-out: LMP7 IC50
[4] = incubation for 20 minutes at 25° C., concentrations 30 μM to 15 pM, read-out: Beta5 IC50

Row | Compound | Selectivity LMP7 vs Beta5 [1] | IC50 [1, 3] [M] | IC50 [2, 4] [M] | IC50 ([1]; long incubation: 120 min at 25° C., read-out: LMP7 IC50 (M) (long)) | IC50 ([2]; long incubation: 120 min at 25° C., read-out: Beta5 IC50 (M) (long))
1 | O=C(N[C@@H](Cc1coc2ccccc12)B(O)O)[C@@H]1C[C@H]2CC[C@@H]1O2 [Compound No. 9, [(1R)-2-(1-benzofuran-3-yl)-1-{[(1S,2R,4R)-7-oxabicyclo[2.2.1]heptan-2-yl]formamido}ethyl]boronic acid] | +++++ (Selectivity ≥700) | < 5e-08 | 5e-07 to 5e-06 | – | –
2 | O=C(N[C@@H](C[C@@H]1COc2ccccc21)B(O)O)[C@H]1C[C@@H]2CC[C@H]1O2 [compound 2, [(1R)-2-[(3S)-2,3-dihydro-1-benzofuran-3-yl]-1-{[(1R,2S,4S)-7-oxabicyclo[2.2.1]heptan-2-yl]formamido}ethyl]boronic acid] | +++ (300 ≤ Selectivity < 500) | 5e-08 to 5e-07 | 5e-06 to 3e-05 | – | –
3 | O=C(N[C@@H](CC1CCCCC1)B(O)O)[C@@H]1C[C@H]2CC[C@@H]1O2 [compound 26, [(1R)-2-cyclohexyl-1-{[(1S,2R,4R)-7-oxabicyclo[2.2.1]heptan-2-yl]formamido}ethyl]boronic acid] | – | – | – | 5e-07 to 5e-06 | > 3e-05
4 | O=C(N[C@@H](Cc1coc2c(Cl)cccc12)B(O)O)[C@H]1C[C@@H]2CC[C@H]1O2 [compound 12, [(1R)-2-(7-chloro-1-benzofuran-3-yl)-1-{[(1R,2S,4S)-7-oxabicyclo[2.2.1]heptan-2-yl]formamido}ethyl]boronic acid] | +++++ (Selectivity ≥700) | < 5e-08 | 5e-06 to 3e-05 | – | –
5 | Cc1cccc2c1OC[C@@H]2C[C@H](NC(=O)[C@@H]1C[C@H]2CC[C@@H]1O2)B(O)O [compound 14, [(1R)-2-[(3R)-7-methyl-2,3-dihydro-1-benzofuran-3-yl]-1-{[(1S,2R,4R)-7-oxabicyclo[2.2.1]heptan-2-yl]formamido}ethyl]boronic acid] | – | 5e-07 to 5e-06 | > 3e-05 | – | –
6 | O=C(N[C@@H](Cc1ccsc1)B(O)O)[C@@H]1C[C@H]2CC[C@@H]1O2 [compound 3, [(1R)-1-{[(1S,2R,4R)-7-oxabicyclo[2.2.1]heptan-2-yl]formamido}-2-(thiophen-3-yl)ethyl]boronic acid] | – | 5e-07 to 5e-06 | > 3e-05 | – | –
7 | O=C(N[C@@H](C[C@@H]1COc2ccccc21)B(O)O)[C@@H]1C[C@H]2CC[C@@H]1O2 [Compound No. 1, [(1R)-2-[(3S)-2,3-dihydro-1-benzofuran-3-yl]-1-{[(1S,2R,4R)-7-oxabicyclo[2.2.1]heptan-2-yl]formamido}ethyl]boronic acid] | +++++ (Selectivity ≥700) | < 5e-08 | 5e-06 to 3e-05 | – | –
8 | O=C(N[C@@H](Cc1coc2c(Cl)cccc12)B(O)O)[C@@H]1C[C@H]2CC[C@@H]1O2 [Compound No. 13, [(1R)-2-(7-chloro-1-benzofuran-3-yl)-1-{[(1S,2R,4R)-7-oxabicyclo[2.2.1]heptan-2-yl]formamido}ethyl]boronic acid] | +++++ (Selectivity ≥700) | < 5e-08 | 5e-07 to 5e-06 | – | –
9 | O=C(N[C@@H](Cc1coc2ccccc12)B(O)O)[C@H]1C2C(=O)N(C3CC3)C[C@]23C=C[C@H]1O3 (stereo partly drawn) [compound 17, [(1R)-2-(1-benzofuran-3-yl)-1-{[(1S,6S,7R)-3-cyclopropyl-4-oxo-10-oxa-3-azatricyclo[5.2.1.0^1,5]dec-8-en-6-yl]formamido}ethyl]boronic acid] | ++ (100 ≤ Selectivity < 300) | < 5e-08 | 5e-06 to 3e-05 | – | –
10 | Cc1cccc2c(C[C@H](NC(=O)[C@]34CC[C@H](O3)c3ccccc34)B(O)O)coc12 [compound 19, [(1R)-2-(7-methyl-1-benzofuran-3-yl)-1-{[(1R,8S)-11-oxatricyclo[6.2.1.0^2,7]undeca-2,4,6-trien-1-yl]formamido}ethyl]boronic acid] | +++++ (Selectivity ≥700) | < 5e-08 | 5e-06 to 3e-05 | – | –

Reference: US11858951B2, “Boronic acid derivatives” (Merck Patent GmbH, priority 2017, dated 2024)
